Consider two compounds from patent US8466202B2, “Anthracenedione compounds” (Sunten Phytotech Co., Ltd., priority 2006, dated 2013).

Several values for one entry are separate records, joined by “and”; a condition that tells them apart may be missing. Equal values may be shown once.

Data set [1] is described as follows: Body weight of rats over the 10-day period (Example 3). On the set-up: Body weight Difference: unit not given here. It counts as in vivo, rat. To be noted: Group II, Sennosides 3.35 mg/kg/day, STD05 24 mg/kg, ARE 24 mg/kg, Chrysophanol 4 mg/kg, Emodin 4 mg/kg. On the procedure: The aforementioned STD05 and compounds were studied for the laxative activity. Healthy male S.D. rats (BioLASCO Taiwan Co. Ltd.) were divided into three groups (i.e., Groups 1-3) in this study. In Group I, 6 rats, as negative control, were given no treatment; 6 rats, as positive control, were given 3.35 mg/kg/day Sennosides (Through®, Chung Mei Pharmaceutical Co., Ltd; Active ingredient: Sennosides 20 mg, as sennoside A+B 12 mg, Lot. 012F 006); 6 rats were treated STD05 (8 mg/kg/day); 6 rats were treated with an extract fraction containing aloe-emodin, rhein, and emodin (“ARE”, 8 mg/kg/day); 6 rats were treated with Aloe-emodin (4 mg/kg/day); and 6 rats were treated with Rhein (4 mg/kg/day). In Group II, 6 rats, as negative control, were given no treatment; 6 rats, as positive control, were given 3.35 mg/kg/day Sennosides; 6 rats were treated STD05 (24 mg/kg/day); 6 rats were treated with an extract fraction containing ARE (24 mg/kg/day); 6 rats were treated with Chrysophanol (4 mg/kg/day); and 6 rats were treated with Emodin (4 mg/kg/day). In Group III, 6 rats, as negative control, were given no treatment; 6 rats were treated with Physcoin (4 mg/kg/day); and 6 rats were treated with a mixture of chrysophanol and physcion (8 mg/kg/day, “CP”). The experiments were carried out under controlled temperature, humidity, and lighting. Each rat was fed standard rat food and water ad libitum in housing that provided a 12-hour light/dark cycle. For statistical comparison, all of the rats were divided into six sets according to the body weights. The first part of the experiment studied the effect of the test substances on feces production. During the 10-day period, the body weights of the rats were weighed each day and recorded. The rat's feces was also studied three times in the manner described above during the 10-day period for any unusual observations. During the 10-day period, any rat that appeared dying was euthanized, dissected, and examined for any illness or injury. Any complications or illness were analyzed by H&E stains to determine the cause of death and to allow for dosage reconsiderations for future experiments. Summarized in Table 4 below are the effects of the compounds, mixtures, or extracts on the rat body weights.

Data set [2] concerns healthy male S.D. rats. The experiment in a line: Feces production in rats over the 10-day period (Example 3). It counts as in vivo, rat. To be noted: for increase of the feces amount (wet weight): vs control of the same group; for Pellet count / Water content / Wet Weight: Group II, Sennosides 3.35 mg/kg, STD05 24 mg/kg, ARE 24 mg/kg, Chrysophanol 4 mg/kg, Emodin 4 mg/kg. On the procedure: During this period, the body weights of the rats were weighed each day and recorded. Feces of each rat were studied three times during the period for any unusual observations. Specifically, the amounts of feces were weighed on Days 11, 15, 18, and 21. During observation, each rat was placed in a metabolic cage. Feces were collected every twenty-four hours. The number of collected feces pellets was counted, and the pellets' shapes and colors were evaluated. After weighing the moist feces, they were dried in an oven at 100° C. for twenty-four hours. The water content from the feces was calculated according to the following formula: Water content percentage=[(wet weight−dry weight)/wet weight]×100%. (I) The results are summarized in Table 2 below: The aforementioned STD05 and compounds were studied for the laxative activity. Healthy male S.D. rats (BioLASCO Taiwan Co. Ltd.) were divided into three groups (i.e., Groups 1-3) in this study. In Group I, 6 rats, as negative control, were given no treatment; 6 rats, as positive control, were given 3.35 mg/kg/day Sennosides (Through®, Chung Mei Pharmaceutical Co., Ltd; Active ingredient: Sennosides 20 mg, as sennoside A+B 12 mg, Lot. 012F 006); 6 rats were treated STD05 (8 mg/kg/day); 6 rats were treated with an extract fraction containing aloe-emodin, rhein, and emodin (“ARE”, 8 mg/kg/day); 6 rats were treated with Aloe-emodin (4 mg/kg/day); and 6 rats were treated with Rhein (4 mg/kg/day). In Group II, 6 rats, as negative control, were given no treatment; 6 rats, as positive control, were given 3.35 mg/kg/day Sennosides; 6 rats were treated STD05 (24 mg/kg/day); 6 rats were treated with an extract fraction containing ARE (24 mg/kg/day); 6 rats were treated with Chrysophanol (4 mg/kg/day); and 6 rats were treated with Emodin (4 mg/kg/day). In Group III, 6 rats, as negative control, were given no treatment; 6 rats were treated with Physcoin (4 mg/kg/day); and 6 rats were treated with a mixture of chrysophanol and physcion (8 mg/kg/day, “CP”). The experiments were carried out under controlled temperature, humidity, and lighting. Each rat was fed standard rat food and water ad libitum in housing that provided a 12-hour light/dark cycle. For statistical comparison, all of the rats were divided into six sets according to the body weights. The first part of the experiment studied the effect of the test substances on feces production. During the 10-day period, the body weights of the rats were weighed each day and recorded. The rat's feces was also studied three times in the manner described above during the 10-day period for any unusual observations. During the 10-day period, any rat that appeared dying was euthanized, dissected, and examined for any illness or injury. Any complications or illness were analyzed by H&E stains to determine the cause of death and to allow for dosage reconsiderations for future experiments. Summarized in Table 4 below are the effects of the compounds, mixtures, or extracts on the rat body weights. During the period, feces produced by the rats were studied days 1, 5, and 10 in the same manner described above. […] In the 10-day period, the rats administered with STD05 produced more feces (wet weight) that the rats in the control group by about 32%. In addition, the pellet counts for the rats administered with STD05 were greater than those for the control rats by about 20%. Furthermore, STD05 increased the water content in feces by about 18%. The same experiments were conducted on rats administered with physcion, aloe-emodin, chrysophanol, rhein, emodin, CP, and ARE.

Data set [3] is described as follows: Enteric absorption rate (statement, no method given). To be noted: general statement.
Data set [4] is described as follows: Side effects compared with Rheum palmatum Linne herb extracts (statement, no method given). To be noted: general statement.
In data set [5] the test system is healthy male S.D. rats. Put plainly: Feces production in rats given Rheum palmatum Linne extracts for three weeks (Example 2). It counts as in vivo, rat. To be noted: oral everyday, Rheum palmatum crude extract 500, Bisacodyl 1.75, Sennosides 3.55, STD03 180, STD05-1 12, STD05-2 24 mg/kg; for Water content: feces; for Pellet count / Wet Weight: total of the six rats in the group. The procedure:
The laxative activities by Rheum palmatum Linne extracts were studied. A crude Rheum palmatum Linne extract and STD05 were obtained from SunTen Phytotech Co., Ltd. (Jhonghe City, Taiwan). Commercial available laxatives, Through® (Chung Mei Pharmaceutical Co., Ltd.; active ingredient: Sennosides 20 mg, as Sennosides A+B 12 mg, Lot. 009A 051) and Dulcolax® (Boehringer Ingelheim, Taiwan, Ltd.; active ingredient: Bisacodyl; Lot. 480-4942) were obtained from a pharmacy.
Forty-two healthy male S.D. rats (8 weeks old; National Laboratory Animal Center, Taiwan) were divided into seven groups (six in each) and tested for the laxative activity by Rheum palmatum Linne extracts. The rats in one group were not fed with any extract or drug and used as negative controls. The rats in the second and third group were given Sennosides (3.55 mg/kg) and Bisacodyl (1.75 mg/kg), respectively, and used as positive controls. The Rats in the other four groups were given Rheum palmatum Linne crude extract (500 mg/kg), filtered crude extract STD03 (180 mg/kg), and STD05 (STD05-1: 12 mg/kg and STD05-2: 24 mg/kg), respectively. All substances were administered orally everyday for three weeks.
The experiments were carried out under conditions in which temperature, humidity, and lighting were all controlled. Each rat was fed standard rat food and water ad libitum in housing that provided a 12-hour light/dark cycle. The rats were divided into seven groups according to the body weights.
The first part of the experiment studied the effect of the above-mentioned extracts on feces production. During the three-week period, any rat that appeared dying was euthanized, dissected, and studied to check for any illness or injures. Any complications or illness were analyzed by H&E stains to determine the cause of death and to allow for dosage reconsiderations for future experiments.
During this period, the body weights of the rats were weighed each day and recorded. Feces of each rat were studied three times during the period for any unusual observations. Specifically, the amounts of feces were weighed on Days 11, 15, 18, and 21. During observation, each rat was placed in a metabolic cage. Feces were collected every twenty-four hours. The number of collected feces pellets was counted, and the pellets' shapes and colors were evaluated. After weighing the moist feces, they were dried in an oven at 100° C. for twenty-four hours. The water content from the feces was calculated according to the following formula: Water content percentage=[(wet weight−dry weight)/wet weight]×100%.
Intestine motility data were expressed as mean±SD. Data were analyzed using the one-way ANOVA method. For comparison within the groups, a Post hoc Comparison was applied. In both feces production and intestine motility analyses, p<0.05 indicates significant differences. For the feces production tests, the data for each group and each time point represent the total wet weight or pellet count of the six rats in the group.

With `Cc1cc(O)c2c(c1)C(=O)c1cccc(O)c1C2=O` [Chrysophanol, chrysophanol], in data set [1] (group mean, Day 10 minus Day 1), the Body weight Difference, Mean is 33 g. This compound displayed a Body weight End Day 10, Mean in data set [1] (group mean) of 376 g. Also, in data set [1] (individual rats, Day 10 minus Day 1), the “Body weight Difference” value is 40 and 20 and 30 (2×) and 25 and 50. Besides, the “Body weight End Day 10” value in data set [1] (individual rats) was 370 (3×) and 385 and 350 and 410. In data set [2] (Day 1), the “increase of the feces amount (wet weight)” value is on record as 19%, the Pellet count amounted to 128, the Water content stood at 50.82% and the “Wet Weight” value was determined as 28.86 g. In data set [2] (Day 5), the “increase of the feces amount (wet weight)” value is recorded as 16%, the Pellet count is 119, the Water content worked out at 51.22% and the “Wet Weight” value was found to be 26.48 g. In data set [2] (Day 10), the “increase of the feces amount (wet weight)” value was 14%, the Pellet count is given as 127, the Water content came out at 56.52% and the “Wet Weight” value came out at 28.83 g. In addition, the “increase of the feces amount (wet weight), average” value in data set [2] (average of Days 1, 5 and 10) was determined as 16%. The enteric absorption rate result in data set [3] is “very low”. Further, the “side effects often seen in herb extracts (cramping, bloating, gas, and diarrhea)” value in data set [4] was “do not have the side effects”.
`CC(=O)Oc1ccc(C(c2ccc(OC(C)=O)cc2)c2ccccn2)cc1` [Bisacodyl]: the Water content is given as 64.45% in data set [5] (Day 11), 68.34% in data set [5] (Day 15), 66.65% in data set [5] (Day 18) and 68.02% in data set [5] (Day 21). Moreover, the Pellet count in data set [5] (Day 11) was found to be 116; in data set [5] (Day 15), 110; in data set [5] (Day 18), 81; in data set [5] (Day 21), 108. For the same compound, the “Wet Weight” value was 33.84 g in data set [5] (Day 11), 41.64 g in data set [5] (Day 15), 30.14 g in data set [5] (Day 18) and 40.13 g in data set [5] (Day 21).
